From patent publication US9815854B2, “3-(3H-imidazo[4,5-B]pyridin-2-yl)-1H-pyrazolo[3,4-C]pyridine and therapeutic uses thereof” (Samumed, LLC, priority 2014, dated 2017)

Columns and labels:
[1] = tested on: Wnt activity (Sp5-Luc reporter, TCF/LEF binding sites) in SW480 colon carcinoma cells; test: Sp5-Luc Wnt reporter gene screening assay in SW480 colon carcinoma cells; format: cell-based, human; details: Homo sapiens
From the text: The screening assay for Wnt activity is described as follows. Reporter cell lines can be generated by stably transducing cancer cell lines (e.g., colon cancer) or primary cells (e.g., IEC-6 intestinal cells) with a lentiviral construct that includes a Wnt-responsive promoter driving expression of the firefly luciferase gene.
SW480 colon carcinoma cells were transduced with a lentiviral vector expressing luciferase with a human Sp5 promoter consisting of a sequence of eight TCF/LEF binding sites. SW480 cells stably expressing the Sp5-Luc reporter gene and a hygromycin resistance gene were selected by treatment with 150 μg/ml of hygroinycin for 7 days. These stably transduced SW480 cells were expanded in cell culture and used for all further screening activities. For Sp5-Luc reporter gene assays, the cells were plated at 10,000 cells/well in 96-well plates with growth medium containing 10% fetal calf serum and incubated overnight at 37° C. and 5% CO2. Each compound was dissolved in DMSO as a 10 mM stock in standard j-vials and used to prepare compound source plates in dose-response format with 3-fold serial dilutions and a 10 mM top concentration. Compound transfer from serially diluted source plates to assay plates containing the cells was accomplished using a pintool (Multimek 96, Beckman equipped with V&P Scientific FP1S50H pins) based liquid handling protocol. This protocol used a slotted pin to transfer 50 nl of compound from a source plate well to an assay plate well containing 50 μl of cells in growth medium. […] Control wells received 50 nl of DMSO treatment for nommlization and calculating IC50 values. The treated cells were incubated at 37° C. and 5% CO2 for an additional forty-two hours. Following incubation, the growth medium was removed and 50 μl of BrightGlo luminescence reagent (Promega) was added to each well of the 96-well assay plates. The plates were placed on an orbital shaker for 5 min and then luminescence was quantified on the Victor3 (Perkin Elmer) plate reader. Readings were normalized to DMSO only treated cells, and normalized activities were utilized for IC50 calculations using the dose-response log (inhibitor) vs. response—variable slope (four parameters) nonlinear regression feature available in GraphPad Prism 5.0 or 6.0.

[2] = tested on: primary human fibroblasts derived from IPF patients (LL29 cells); test: Inhibition of the fibrotic process in TGF-β1-treated primary human fibroblasts from IPF patients (αSMA staining); format: cell-based; details: Fibroblast, 96 h, TGF-β1 20 ng/mL, 4 days, read-out: Inhibition of fibrosis EC50
From the text: The above synthesized compounds were screened using primary human fibroblasts (derived from IPF patients) treated with TGF-β1 to determine their ability to inhibit the fibrotic process.
Human Fibroblast Celt Culture: Primary human fibroblasts derived from IPF patients (LL29 cells) [^1Xiaoqiu Liu, et.al., “Fibrotic Luna Fibroblasts Show Blunted Inhibition by cAMP Due to Deficient cAMP Response Element-Binding Protein Phosphorylation”, Journal of Pharmacology and Experimental Therapeutics (2005), 315(2), 678-687; ^2Watts, K. L., et.al., “RhoA signaling modulates cyclin D1 expression in human lung fibroblasts; implications for idiopathic pulmonary fibrosis”, Respiratory Research (2006), 7(1), 88] were obtained from American Type Culture Collection (ATCC) and expanded in F12 medium supplemented with 15% Fetal Bovine Serum and Penicillin/Streptomycin.
Compound Screening: Each compound was dissolved in DMSO as a 10 mM stock and used to prepare compound source plates. Serial dilution (1:2, 11-point dose-response curves from 10 μM to […]) and compound transfer was performed using the ECHO 550 (Lahcyte, Sunnyvale, Calif.) into 384-well clear bottom assay plates (Greiner Bio-One) with appropriate DMSO backfill fhr a final DMSO concentration of 0.1%. LL29 cells were plated at 1,500 cells/well in 80 μl/well F12 medium supplemented with 1% Fetal Bovine Serum. One hour after addition of the cells. TGF-β1 (Peprotech; 20 ng/mL) was added to the plates to induce fibrosis (ref. 1 and 2 above), Wells treated with TGF-β1 and containing DMSO were used as controls. Cells were incubated at 37° C. and 5% CO2 for 4 days. Following incubation for 4 days, SYTOX green nucleic acid stain (Life Technologies [Thermo Fisher Scientific]) was added to the wells at a final concentration of 1 uM and incubated at room temperature for 30 min. Cells were then fixed using 4% formaldehyde (Electron Microscopy Sciences), washed 3 times with PBS followed by blocking and penneabilization using 3% Bovine Serum Albumin (BSA; Sigma) and 0.3% Triton X-100 (Sigma) in PBS. Cells were then stained with antibody specific to α-smooth muscle actin (αSMA; Abeam) (ref 1 and 2 above) in 3% Bovine Serum Albumin (BSA; Sigma) and 0.3% Triton X-100 (Sigma) in PBS, and incubated overnight at 4° C. Cells were then washed 3 times with PBS, followed by incubation with Alexa Flor-647 conjugated secondary antibody (Life Technologies [Thermo Fisher Scientific]) and DAPI at room temperature for 1 hour, Cells were then washed 3 times with PBS and plates were sealed for imaging. αSMA staining was imaged by excitation at 630 nm and emission at 665 nm and quantified using the Compartmental Analysis program on the CellInsight CX5 (Thermo Scientific). Dead or apoptotic cells were excluded from analysis based on positive SYTOX green staining. % of total cells positive for αSMA were counted in each well and normalized to the average of 11 wells treated with TGF-β1 on the same plate using Dotmatics' Studies Software. The normalized averages (fold change over untreated) of 3 replicate wells for each compound concentration were used to create dose-responses curves and EC50 values were calculated using non-linear regression curve fit in the Dotmatics' Studies Software. The EC50 values are reported.

Row | Structure (SMILES) | IC50 [1] | EC50 [2]
1 | CN(C)Cc1cncc(-c2cc3c(-c4nc5c(-c6cccc(F)c6)ccnc5[nH]4)n[nH]c3cn2)c1 [Compound 13, 1-(5-(3-(7-(3-Fluorophenyl)-3H-imidazo[4,5-b]pyridin-2-yl)-1H-pyrazolo[3,4-c]pyridin-5-yl)pyridin-3-yl)-N,N-dimethylmethanamine] | 290 nM | 745 nM
2 | CS(=O)(=O)NCc1cc(F)cc(-c2ccnc3[nH]c(-c4n[nH]c5cnc(-c6cncnc6)cc45)nc23)c1 [Compound 442, N-(3-Fluoro-5-(2-(5-(pyrimidin-5-yl)-1H-pyrazolo[3,4-c]pyridin-3-yl)-3H-imidazo[4,5-b]pyridin-7-yl)benzyl)methanesulfonamide] | > 10000 nM | ≥ 9990 nM
3 | Cc1ccc(-c2ccnc3[nH]c(-c4n[nH]c5cnc(-c6cncc(NC(C)C)c6)cc45)nc23)s1 [Compound 376, N-Isopropyl-5-(3-(7-(5-methylthiophen-2-yl)-3H-imidazo[4,5-b]pyridin-2-yl)-1H-pyrazolo[3,4-c]pyridin-5-yl)pyridin-3-amine] | 10.6 nM | ≥ 9990 nM
4 | CCCC(=O)Nc1cncc(-c2cc3c(-c4nc5c(-c6cc(F)cc(CNS(C)(=O)=O)c6)ccnc5[nH]4)n[nH]c3cn2)c1 [Compound 433, N-(5-(3-(7-(3-Fluoro-5-(methylsulfonamidomethyl)phenyl)-3H-imidazo[4,5-b]pyridin-2-yl)-1H-pyrazolo[3,4-c]pyridin-5-yl)pyridin-3-yl)butyramide] | > 10000 nM | ≥ 9990 nM
5 | Fc1cccc(-c2ccnc3[nH]c(-c4n[nH]c5cnc(-c6cnccn6)cc45)nc23)c1 [Compound 954, 3-(7-(3-Fluorophenyl)-3H-imidazo[4,5-b]pyridin-2-yl)-5-(pyrazin-2-yl)-1 H-pyrazolo[3,4-c]pyridine] | 661 nM | ≥ 9990 nM
6 | CN1CCN(c2ccnc3[nH]c(-c4n[nH]c5cnc(-c6cncc(N)c6)cc45)nc23)CC1 [Compound 211, 5-(3-(7-(4-Methylpiperazin-1)-3H-imidazo[4,5-b]pyridin-2-yl)-1H-pyrazolo[3,4-c]pyridin-5-yl)pyridin-3-amine] | 1040 nM | ≥ 9990 nM
7 | CC(C)(C)C(=O)Nc1cncc(-c2cc3c(-c4nc5c(-c6ccccc6F)ccnc5[nH]4)n[nH]c3cn2)c1 [Compound 60] | 45.5 nM | ≤ 9 nM
8 | CN(C)c1cncc(-c2cc3c(-c4nc5c(-c6cccs6)ccnc5[nH]4)n[nH]c3cn2)c1 [Compound 319] | 125 nM | 75 nM
9 | COc1cncc(-c2cc3c(-c4nc5c(-c6cccc(F)c6)ccnc5[nH]4)n[nH]c3cn2)c1 [Compound 948, 3-(7-(3-Fluorophenyl)-3H-imidazo[4,5-b]pyridin-2-yl)-5-(5-methoxypyridin-3-yl)-1H-pyrazolo[3,4-c]pyridine] | 850 nM | 632 nM
10 | CC(=O)c1ccc(-c2ccnc3[nH]c(-c4n[nH]c5cnc(-c6cncc(NC(=O)CC(C)(C)C)c6)cc45)nc23)s1 [Compound 406, N-(5-(3-(7-(5-Acetylthiophen-2-yl)-3H-imidazo[4,5-b]pyridin-2-yl)-1H-pyrazolo[3,4-c]pyridin-5-yl)pyridin-3-yl)-3,3-dimethylbutanamide] | > 10000 nM | ≥ 9990 nM
11 | O=C(Cc1ccccc1)Nc1cncc(-c2cc3c(-c4nc5cccnc5[nH]4)n[nH]c3cn2)c1 [Compound 244, N-(5-(3-(3H-Imidazo[4,5-b]pyridin-2-yl)-1H-pyrazolo[3,4-c]pyridin-5-yl)pyridin-3-yl)-2-phenylacetamide] | > 10000 nM | 992 nM
12 | Cc1ccc(-c2ccnc3[nH]c(-c4n[nH]c5cnc(-c6cncc(NC(=O)C(C)(C)C)c6)cc45)nc23)s1 [Compound 372, N-(5-(3-(7-(5-Methylthiophen-2-yl)-3H-imidazo[4,5-b]pyridin-1)-1H-pyrazolo[3,4-c]pyridin-5-yl)pyridin-3-yl)pivalamide] | 24.8 nM | 220 nM
13 | Cc1ccncc1-c1cc2c(-c3nc4c(-c5ccsc5)ccnc4[nH]3)n[nH]c2cn1 [Compound 265, 5-(4-Methylpyridin-3-yl)-3-(7-(thiophen-3-yl)-3H-imidazo[4,5-b]pyridin-2-yl)-1H-pyrazolo[3,4-c]pyridine] | 26.1 nM | 34 nM
14 | NC1CN(c2cncc(-c3cc4c(-c5nc6c(-c7cccc(F)c7)ccnc6[nH]5)n[nH]c4cn3)n2)C1 [Compound 942, 1-(6-(3-(7-(3-Fluorophenyl)-3H-imidazo[4,5-b]pyridin-2-yl)-1H-pyrazolo[3,4-c]pyridin-5-yl)pyrazin-2-yl)azetidin-3-amine] | 1490 nM | 1470 nM
15 | Cc1ccc(-c2ccnc3[nH]c(-c4n[nH]c5cnc(-c6cncc(NC(=O)C(C)C)c6)cc45)nc23)s1 [Compound 373, N-(5-(3-(7-(5-Methylthiophen-2-yl)-3H-imidazo[4,5-b]pyridin-2-yl)-1H-pyrazolo[3,4-c]pyridin-5-yl)pyridin-3-yl)isobutyramide] | 16.4 nM | ≤ 9 nM
16 | CCCC(=O)Nc1cncc(-c2cc3c(-c4nc5c(-c6ccccc6F)ccnc5[nH]4)n[nH]c3cn2)c1 [Compound 69, N-(5-(3-(7-(2-Fluorophenyl)-3H-imidazo[4,5-b]pyridin-2-yl)-1H-pyrazolo[3,4-c]pyridin-5-yl)pyridin-3-yl)butyramide] | 128 nM | 210 nM
17 | Cc1ccc(-c2ccnc3[nH]c(-c4n[nH]c5cnc(-c6cncc(NC(=O)C7CCCC7)c6)cc45)nc23)s1 [Compound 385] | 84.4 nM | 106 nM
18 | CCC(=O)Nc1cncc(-c2cc3c(-c4nc5c(N6CCCCC6)ccnc5[nH]4)n[nH]c3cn2)c1 [Compound 157] | > 10000 nM | ≥ 9990 nM
19 | CN(C)Cc1cncc(-c2cc3c(-c4nc5c(N6CCCCC6)ccnc5[nH]4)n[nH]c3cn2)c1 [Compound 169, N,N-Dimethyl-1-(5-(3-(7-(piperidin-1-yl)-3H-imidazo[4,5-b]pyridin-2-yl)-1H-pyrazolo[3,4-c]pyridin-5-yl)pyridin-3-yl)methanamine] | 253 nM | 481 nM
20 | CC(C)C(=O)Nc1cncc(-c2cc3c(-c4nc5c(-c6cccnc6)ccnc5[nH]4)n[nH]c3cn2)c1 [Compound 87, N-(5-(3-(7-(Pyridin-3-yl)-3 H-imidazo[4,5-b]pyridin-2-yl)-1H-pyrazolo[3,4-c]pyridin-5-yl)pyridin-3-yl)isobutyramide] | > 10000 nM | ≥ 9990 nM
21 | c1cncc(-c2cc3c(-c4nc5c(-c6cccnc6)ccnc5[nH]4)n[nH]c3cn2)c1 [Compound 82, 5-(Pyridin-3-7-(pyridin-3-yl)-3H-imidazo[4,5-b]pyridin-2-yl)-1H-pyrazolo[3,4-c]pyridine] | > 10000 nM | ≤ 9 nM
